Assay results taken from paper PMC5855630, “The Design and Development of Potent Small Molecules as Anticancer Agents Targeting EGFR TK and Tubulin Polymerization” (International Journal of Molecular Sciences, 2018).
“And” between values parts separate entries of the source, which are not always exact repeats. Identical values can stand only once.

What was measured:
[1] = tested on: MCF-7 breast cancer cell line; test: MTT cancer cell antiproliferative assay, MCF-7; assay type: cell-based; conditions: Homo sapiens, MCF7, 24 h treatment
Experimental: (§1) The newly synthesized compounds 4a–e, 6a–c and 9a–d were evaluated for their in vitro anticancer activity against two breast cancer cell lines; Michigan cancer foundation-7 (MCF-7) and M.D. Anderson metastasis breast cancer-231 (MDA-MB-231) according to (3-(4,5-dimethylthiazole-2-yl)-2,5-diphenyltetrazolium bromide) tetrazolium (MTT) assay method by using erlotinib as positive tyrosine kinase (TK) drug.
(§2) The in vitro anticancer activities of the target compounds against two breast cancer cell lines; luminal human breast adenocarcinoma (estrogen-receptor (ER) and progesterone-receptor (PR)) positive MCF-7 and negative human breast cancer (MDA-MB-231) cell lines were evaluated as described with some modifications. Cell line cells were obtained from American Type Culture Collection, cells was cultured using DMEM (Invitrogen Life Technologies, Waltham, MA, USA) supplemented with 10% FBS (Hyclone, Logan, UT, USA), 10 µg/mL of insulin (Sigma, St. Louis, MO, USA), and 1% penicillin-streptomycin. All of the other chemical sand reagents were from (Sigma, St. Louis, MO, USA). The cells […] were sub-cultured into a 96-well plate with […] per well in medium, at 37 °C, 5% CO2 and 95% air atmosphere, before being treated with or without various concentrations of test compounds, each in triplicate for 24 h. At the end of the incubation, the cells were harvested and washed with PBS. 20 µL of MTT was added to each well and incubated for 2 h before 200 µL DMSO was added. The absorbance was measured on an ELISA reader (Multiskan EX, Lab systems, Waltham, MA, USA) at a test wavelength of 570 nm.

[2] = tested on: MDA-MB-231 breast cancer cell line; test: MTT cancer cell antiproliferative assay, MDA-MB-231; assay type: cell-based, human; conditions: 24 h treatment
Experimental: as §1, §2

[3] = target: T1, epidermal growth factor receptor (EGFR) tyrosine kinase (TK) (Homo sapiens, UniProt P00533); test: EGFR TK inhibition assay (HT Scan EGFR kinase assay kit); assay type: biochemical; conditions: GST-EGFR protein, 400 μM ATP
T1 construct: purchased Cell Signaling Technology
Experimental: The compound (4b) bears flexible benzylamine terminal moiety, while the (6a) and (6c) derivatives bear sulphonamide moieties and 9a–b with Schiff fragments.
EGFR kinase activity was measured by HT Scan EGFR kinase assay kits (Cell Signaling Technology, Danvers, MA, USA). The experiments were done following the manufacturer’s directions. […] Strapavidin-coated 96-well plates was used to take phosphorylated substrate. Anti-phosphotyrosine and europium-labeled secondary antibodies (DELFIA, Perkin-Elmer, Akron, OH, USA) was used to monitor the level of phosphorylation. At the end of the assay, the enrichment solution was added and enzyme activity was assessed in the Wallac Victor II 1420 micro-plate reader (Abcam, Milton, Cambridge, UK) and […].

[4] = target: tubulin polymerization (Tubulin Beta, Tubb) (Homo sapiens, UniProt P07437+P68363); test: Tubulin polymerization inhibition (ELISA for Tubulin Beta); assay type: biochemical
From the text: Microtubule-targeting agents affect microtubule function and stop mitosis, resulting in necrosis and apoptosis and eventually cell death.
This assay was done according to reported procedures

MDA-MB-231 cells = test: Annexin V-FITC apoptosis analysis; assay type: cell-based, human; conditions: IC50 concentration, 48 h
From the text: Apoptosis induction was examined in treated MDA-MB-231 cells by use of an Annexin V-fluorescine isothiocyanate (FITC) (Abcam, Milton, Cambridge, UK). The treatment of the cells with target compound (6c) and erlotinib drug with antiproliferative detected concentrations have been applied for comparison. […] The apoptosis-inducing effect of target compound was investigated by flow cytometric analysis of MDA-MB-231 cells stained with Annexin V and propidium iodide. […] This might be extra behavior interpreting the potent cytotoxic effect of such compounds.
This analysis was performed following the reported procedures.

T1 sequence (P00533 25-1210): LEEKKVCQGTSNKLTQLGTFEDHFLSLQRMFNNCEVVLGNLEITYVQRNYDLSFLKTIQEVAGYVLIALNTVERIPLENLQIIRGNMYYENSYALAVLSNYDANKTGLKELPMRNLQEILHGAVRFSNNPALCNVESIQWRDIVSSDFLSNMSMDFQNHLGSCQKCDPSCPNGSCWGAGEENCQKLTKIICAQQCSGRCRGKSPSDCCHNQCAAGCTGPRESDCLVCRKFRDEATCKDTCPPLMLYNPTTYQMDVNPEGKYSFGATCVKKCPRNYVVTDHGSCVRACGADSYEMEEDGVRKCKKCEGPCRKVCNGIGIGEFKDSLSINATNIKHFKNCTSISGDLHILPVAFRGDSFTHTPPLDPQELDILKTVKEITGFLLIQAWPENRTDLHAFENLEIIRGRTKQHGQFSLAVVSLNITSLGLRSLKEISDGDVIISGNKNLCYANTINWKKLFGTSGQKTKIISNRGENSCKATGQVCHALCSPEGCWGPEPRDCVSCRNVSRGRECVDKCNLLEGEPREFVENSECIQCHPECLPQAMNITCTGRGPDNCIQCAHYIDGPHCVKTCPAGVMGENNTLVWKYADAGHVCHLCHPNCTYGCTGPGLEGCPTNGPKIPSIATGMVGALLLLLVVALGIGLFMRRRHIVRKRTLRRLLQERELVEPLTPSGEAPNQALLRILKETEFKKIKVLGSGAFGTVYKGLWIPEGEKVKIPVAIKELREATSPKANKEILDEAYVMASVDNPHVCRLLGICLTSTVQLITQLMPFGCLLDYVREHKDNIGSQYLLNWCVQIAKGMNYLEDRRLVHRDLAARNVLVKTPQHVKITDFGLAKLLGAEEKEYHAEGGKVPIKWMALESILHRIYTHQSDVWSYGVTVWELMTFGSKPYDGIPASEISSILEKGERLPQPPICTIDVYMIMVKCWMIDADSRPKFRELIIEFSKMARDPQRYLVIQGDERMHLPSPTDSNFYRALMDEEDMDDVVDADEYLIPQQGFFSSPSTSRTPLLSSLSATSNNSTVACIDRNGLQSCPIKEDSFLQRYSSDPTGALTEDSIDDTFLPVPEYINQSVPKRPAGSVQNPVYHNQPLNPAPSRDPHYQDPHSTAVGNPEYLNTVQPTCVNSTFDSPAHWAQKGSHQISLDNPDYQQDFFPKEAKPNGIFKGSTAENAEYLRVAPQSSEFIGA
tubulin polymerization (Tubulin Beta, Tubb), sequence (P07437 whole entry): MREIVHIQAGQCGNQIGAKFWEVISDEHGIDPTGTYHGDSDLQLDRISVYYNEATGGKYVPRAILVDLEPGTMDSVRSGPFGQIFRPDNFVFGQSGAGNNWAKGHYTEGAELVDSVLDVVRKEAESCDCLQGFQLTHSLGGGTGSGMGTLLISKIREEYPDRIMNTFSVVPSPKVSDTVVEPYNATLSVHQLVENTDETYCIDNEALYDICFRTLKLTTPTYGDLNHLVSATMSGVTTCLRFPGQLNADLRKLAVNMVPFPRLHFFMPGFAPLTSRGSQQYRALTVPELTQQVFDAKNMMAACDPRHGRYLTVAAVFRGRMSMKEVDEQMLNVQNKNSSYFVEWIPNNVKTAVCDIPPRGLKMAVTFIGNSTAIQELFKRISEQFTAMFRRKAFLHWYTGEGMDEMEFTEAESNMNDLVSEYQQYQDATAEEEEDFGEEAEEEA
tubulin polymerization (Tubulin Beta, Tubb), sequence (P68363 whole entry): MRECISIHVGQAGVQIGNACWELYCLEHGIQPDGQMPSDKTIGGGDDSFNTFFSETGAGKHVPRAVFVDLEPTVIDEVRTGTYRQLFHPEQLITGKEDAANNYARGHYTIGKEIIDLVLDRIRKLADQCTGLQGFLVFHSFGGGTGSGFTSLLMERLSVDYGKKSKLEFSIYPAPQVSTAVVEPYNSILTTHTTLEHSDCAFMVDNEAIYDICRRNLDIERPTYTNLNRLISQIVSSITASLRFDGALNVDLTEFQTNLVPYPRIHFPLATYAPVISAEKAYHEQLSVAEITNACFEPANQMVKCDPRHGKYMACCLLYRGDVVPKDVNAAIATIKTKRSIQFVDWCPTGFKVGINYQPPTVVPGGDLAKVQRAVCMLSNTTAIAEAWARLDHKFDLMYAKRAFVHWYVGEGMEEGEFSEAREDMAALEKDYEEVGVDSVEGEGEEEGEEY

Row | SMILES | IC50 [1] [nM] | IC50 ([2]; Homo sapiens, MDA-MB-231, 24 h) [nM] | IC50 [3] | IC50 [4] [nM] | melting point [°C] | IC50 [2] [nM] | Apoptosis induction (Annexin V / propidium iodide flow cytometry) (MDA-MB-231 cells)
1 | O=C(Nc1ccccc1C(=O)N/N=C/c1ccc(O)cc1O)c1ccco1 [Compound 9b, (E)-N-{2-[2-(2,4-Dihydroxybenzylidene)hydrazine-1-carbonyl]phenyl}furan-2-carboxamide] | 0.78 ± 0.11 | 0.48 ± 0.01 | 31 nM and 31.2 nM | 108.4 ± 0.14 |  |  | 
2 | O=C(Nc1ccccc1C(=O)NCc1ccc(F)cc1)c1ccco1 [Compound 4c, N-{2-[(4-Fluorobenzyl)carbamoyl]phenyl}furan-2-carboxamide] | 2.59 ± 0.32 | 3.11 ± 0.5 |  |  | 218 to 220 |  | 
3 | O=C(Nc1ccccc1C(=O)NCc1ccc(Cl)cc1)c1ccco1 [Compound 4d, N-{2-[(4-Chlorobenzyl)carbamoyl]phenyl}furan-2-carboxamide] | 0.64 ± 0.25 | 3.29 ± 0.14 |  |  | 213 to 215 |  | 
4 | O=C(Nc1ccccc1C(=O)NCc1ccccc1)c1ccco1 [Compound 4a] | 3.35 ± 0.11 | 8.82 ± 0.14 |  |  | 230 to 232 |  | 
5 | Cc1ccc(CNC(=O)c2ccccc2NC(=O)c2ccco2)cc1 [Compound 4e, N-{2-[(4-Methylbenzyl)carbamoyl]phenyl}furan-2-carboxamide] | 0.88 ± 0.25 | 5.59 ± 0.2 |  |  | 175 to 178 |  | 
6 | COC(=O)c1ccccc1NC(=O)c1ccco1 [Compound 2, Methyl 2-(Furan-2-carboxamido)benzoate] | 2.43 ± 0.2 | 1.21 ± 0.25 |  |  | 190 to 192 |  | 
7 | NNC(=O)c1ccccc1NC(=O)c1ccco1 [Compound 7, N-[2-(Hydrazinecarbonyl)phenyl]furan-2-carboxamide] | 1.91 ± 0.11 | 35.85 ± 0.12 |  |  | 210 to 212 |  | 

Stronger by IC50 [1], values ahead:

Row | IC50 [1] [nM] | IC50 ([2]; Homo sapiens, MDA-MB-231, 24 h) [nM] | IC50 [3] | IC50 [4] [nM] | melting point [°C] | IC50 [2] [nM] | SMILES | Apoptosis induction (Annexin V / propidium iodide flow cytometry) (MDA-MB-231 cells)
8 | 0.62 ± 0.12 | 0.66 ± 0.11 | 85.4 ± 0.32 nM | 87.6 ± 0.13 | 188 to 189 |  | NS(=O)(=O)c1ccc(NC(=O)c2ccccc2NC(=O)c2ccco2)cc1 [Compound 6a, N-{2-[(4-Sulfamoylphenyl)carbamoyl]phenyl}furan-2-carboxamide] | 
9 | 0.51 ± 0.16 | 0.68 ± 0.02 | 59.3 ± 0.11 nM | 410.6 ± 0.12 | 205 to 207 |  | O=C(Nc1ccccc1C(=O)N/N=C/c1ccccc1)c1ccco1 [Compound 9a, (E)-N-{2-[(2-Benzylidenehydrazine)-1-carbonyl]phenyl}furan-2-carboxamide] | 
10 | 0.48 ± 0.14 | 2.53 ± 0.12 |  |  | 212 to 214 |  | O=C(Nc1ccccc1C(=O)N/N=C/c1ccc(Cl)cc1Cl)c1ccco1 [Compound 9d, (E)-N-{2-[2-(2,4-Dichlorobenzylidene)hydrazine-1-carbonyl]phenyl}furan-2-carboxamide] | 
11 | 0.45 ± 0.08 | 3.74 ± 0.01 |  |  |  |  | C#Cc1cccc(Nc2ncnc3cc(OCCOC)c(OCCOC)cc23)c1 [Erlotinib, reference compound] | accumulation of apoptotic cells
12 | 0.45 ± 0.12 | 0.76 ± 0.11 | 31 nM and 30.5 nM | 140.8 ± 0.15 | 207 to 209 |  | COc1ccc(CNC(=O)c2ccccc2NC(=O)c2ccco2)cc1 [Compound 4b, N-{2-[(4-Methoxybenzyl)carbamoyl]phenyl}furan-2-carboxamide] | 
13 | 0.34 ± 0.2 | 0.4 | 110 ± 0.14 nM | 155 ± 0.25 |  | 0.32 ± 0.21 | O=C(Nc1ccccc1C(=O)Nc1ccc(S(=O)(=O)Nc2nccs2)cc1)c1ccco1 [Compound 6c, N-{2-[(4-(N-(Thiazol-2-Yl)sulfamoyl)phenyl)carbamoyl]phenyl}furan-2-carboxamide] | accumulation of apoptotic cells
14 | 0.15 ± 0.15 | 14.8 ± 0.2 |  |  |  |  | O=C(Nc1ccccc1C(=O)N/N=C/c1ccccn1)c1ccco1 [Compound 9c, (E)-N-{2-[2-(Pyridin-2-ylmethylene)hydrazine-1-carbonyl]phenyl}furan-2-carboxamide] | 
15 | 0.065 | 4.45 ± 0.3 |  |  | 209 to 211 |  | O=C(Nc1ccccc1C(=O)Nc1ccc(S(=O)(=O)Nc2ccccn2)cc1)c1ccco1 [Compound 6b, N-{2-[(4-(N-(Pyridin-2-Yl)sulfamoyl]phenyl)carbamoyl)phenyl}furan-2-carboxamide] | 
